Consider one compound from patent publication EP2802310B1, “NEW USE OF ZERUMBONE AND COMPOSITIONS COMPRISING ZERUMBONE” (Sederma, priority 2012, dated 2013).

Each structure is given as a SMILES string. Where two headings read alike, the source gives them in different places.

One test concerns collagenase. The test is described as follows: Dermal destruction by proteases in skin explants, collagenase. The conditions noted are these: 18ppm of zerumbone co-injected with the protease; five days at 37°C; confocal microscope. The method, then:
Principle: Once prepared, skin explants (person, abdominal skin) received an injection of elastase or collagenase that could proteolyse 30 µmol/min of elastin or collagen. In another case, the invention product (titrated at 18ppm of zerumbone) was co-injected with the protease to assess its ability to inhibit the proteolysis of constituents of the dermis, and thus of protection of the dermis. After five days of incubation at 37°C, the result was observed through a confocal microscope and compared to what was obtained in the case without protease at the same depth (60 µm).

Another test has as its system Mature human adipocytes. The test is described as follows: Lipolytic effect, daily titration of released glycerol over 3 days. The note with it: Homo sapiens, Adipocyte, Zerumbone 6ppm, read-out: released glycerol, versus negative control. It is filed as cell-based. The method, then: Mature human adipocytes were treated with zerumbone to evaluate daily for 3 days. A daily titration of the released glycerol, reflecting lipolysis, was measured in the medium, before the media were changed in order to monitor the long-term effect.
In a second test, mature human adipocytes were treated with the product to evaluate daily for 3 days. A daily titration of the released glycerol was performed in the media, just before changing of the media in order to monitor the long term effect. Table 19: Comparison of the lipolytic effect of caffeine, zerumbone and of a mixture of caffeine and zerumbone on hypertrophied adipocytes in monolayer (n=4) at short and long term.

The test system of the next test is HO-1. The test is described as follows: HO-1 synthesis by ELISA in adipocyte lysates. The note with it: for activation at 3 ppm / activation at 5 ppm: Homo sapiens, Adipocyte, read-out: [HO-1] % Var / control. Format: cell-based, Human. How it is done:
HO-1 enzymes catalyse the degradation of heme into biliverdin, iron, and carbon monoxide. Its overexpression is associated with a decrease in the size of adipocytes in adipose tissue, an increase of adiponectin secretion and a decrease of IL-6 and TNF secretion and is associated with weight loss.
Human preadipocytes were seeded and induced to differentiate at confluence in the presence of a cocktail of specific inducers and the products to evaluate. After 10 days, the layers were crushed and the HO-1 content was measured in these lysates by ELISA. Furthermore after 10 days of differentiation, matiure adipocytes were placed in contact with the products for 48h and the HO-1 content was also measured in the cellular lysates. In parallel, an estimation of the cell quantification is realized on these two assays (Hoechst test).
Background: An ELISA detects its analyte on a solid surface through an enzyme-linked reagent.

The next test deals with MMP1. The test is described as follows: MMP1 synthesis in NHF after UVA, ELISA. Format: cell-based, human. The note with it: 24h before and 24h after UVA. The method, then:
Principle: NHFs were put into contact with the product of the invention for 24h, and then were radiated with UVA rays to trigger an experimental increase in MMP1 synthesis. The cells once again received the product for 24h and the supernatants were assayed using ELISA tests. At the same time, the number of cells was quantified using the Hoechst method.

In the next test the test system is Dermatopontin. The test is described as follows: Dermatopontin synthesis in NHF, ELISA. It is filed as cell-based, human. The conditions noted are these: three days. How it is done: Principle: NHFs were put into contact with the product of the invention for two days (fibromodulin) or three days (dermatopontin). The supernatants were then assayed using ELISA tests. At the same time, the number of cells was quantified using the Hoechst method.

Turning to `C/C1=C\CC(C)(C)/C=C/C(=O)/C(C)=C/CC1` [Zerumbone, 2E, 6E, 9E-Humulatrien-8-one], the “integrity of the dermis under collagenase stress” value with collagenase is “retains its integrity”. Also, the activation at 6 ppm in the test with Mature human adipocytes (24 h, contact time 1 day) came out at 72%; in the test with Mature human adipocytes (48 h, contact time 2 days) it was 141%; in the test with Mature human adipocytes (72 h, contact time 3 days) it was 246%. Further, the “[HO-1]” value with HO-1 (3ppm, adipocytes in the course of differenciation (10days)) is on record as 51658 +/- 7985 ng/ 10^6 cell; in the test on HO-1 (3ppm, mature adipocytes (48h)), 70229 +/- 10638 ng/ 10^6 cell; with HO-1 (5ppm, adipocytes in the course of differenciation (10days)) it was 67243 +/- 11428 ng/ 10^6 cell; in the test with HO-1 (5ppm, mature adipocytes (48h)), 96700 +/- 4548 ng/ 10^6 cell. Moreover, the activation at 3 ppm is 29% in the test with HO-1 (240 h, 3ppm, adipocytes in the course of differenciation (10days)) and 142% in the test on HO-1 (3ppm, mature adipocytes (48h)). In addition, the activation at 5 ppm with HO-1 (240 h, 5ppm, adipocytes in the course of differenciation (10days)) was determined as 68%; in the test on HO-1 (5ppm, mature adipocytes (48h)) it was 233%; in the test on Dermatopontin (Homo sapiens, 72 h, read-out: Dermatopontin % Variation), 137%. Besides, in the test with MMP1 (5 ppm), the MMP1 came to 691 ± 225 ng/106cell. In addition, the inhibition at 5 ppm with MMP1 (Homo sapiens, Fibroblast, light or radiation study, read-out: MMP1 % Variation) is 51%. In the test with Dermatopontin (5 ppm), this compound gave a Dermatopontin of 2540 ± 361 ng/106cell.
